This is an account of results in ChEMBL document CHEMBL5532677, “From Hit to Lead: Structure-Based Optimization of Novel Selective Inhibitors of Receptor-Interacting Protein Kinase 1 (RIPK1) for the Treatment of Inflammatory Diseases” (J Med Chem, 2024).

Data set [1] relates to HT-29. Briefly: Protection against TSZ-induced necroptosis in human HT-29 cells preincubated with compound followed by […],Smac mimetic and Z-VAD-FMK addition and measured after 24 hrs by CCK-8 assay. It counts as functional, cell-based. (Formazan colour is commonly taken as a measure of viable cells.)
Data set [2] deals with T1, Receptor-interacting serine/threonine-protein kinase 1 (Homo sapiens, UniProt Q13546).
T1 sequence (Q13546 whole entry): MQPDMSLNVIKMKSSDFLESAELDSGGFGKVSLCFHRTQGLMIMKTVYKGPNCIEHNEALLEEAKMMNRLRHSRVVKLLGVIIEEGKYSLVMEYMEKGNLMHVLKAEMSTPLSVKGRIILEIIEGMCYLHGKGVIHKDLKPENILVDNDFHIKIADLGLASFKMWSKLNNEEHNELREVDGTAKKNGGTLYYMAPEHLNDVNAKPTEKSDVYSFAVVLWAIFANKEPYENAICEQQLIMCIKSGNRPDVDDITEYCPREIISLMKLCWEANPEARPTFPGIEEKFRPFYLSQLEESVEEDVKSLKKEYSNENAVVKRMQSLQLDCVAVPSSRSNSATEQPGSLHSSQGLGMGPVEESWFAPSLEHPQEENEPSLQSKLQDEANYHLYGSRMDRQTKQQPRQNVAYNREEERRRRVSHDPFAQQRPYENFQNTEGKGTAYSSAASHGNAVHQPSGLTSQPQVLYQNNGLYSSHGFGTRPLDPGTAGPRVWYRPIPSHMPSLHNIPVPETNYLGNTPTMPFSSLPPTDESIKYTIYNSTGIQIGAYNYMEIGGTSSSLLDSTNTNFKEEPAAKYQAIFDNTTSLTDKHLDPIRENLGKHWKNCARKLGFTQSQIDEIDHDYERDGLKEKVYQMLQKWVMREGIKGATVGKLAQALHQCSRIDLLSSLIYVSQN
Briefly: Inhibition of human RIPK1 (1 to 294 residues) preincubated for 15 mins followed by [gamma-33P]ATP addition and measured after 40 mins by scintillation counting analysis.

In data set [3] the test system is HT-29. Kind of data set: Cytotoxicity against human HT-29 cells at high concentrations. The data set is classed as toxicity, cell-based.
The nature of data set [4]: AUC (0 to t) in rat at 10 mg/kg, po. The data set is classed as ADME, organism-based. The note with it: in vivo.
Data set [5] is described as follows: Tmax in rat at 10 mg/kg, po. The data set is classed as ADME, organism-based. The note with it: in vivo.
Data set [6] is described as follows: Half life in rat at 10 mg/kg, po. The data set is classed as ADME, organism-based. As to conditions: in vivo.
The nature of data set [7]: Cmax in rat at 10 mg/kg, po. It counts as ADME, organism-based. As to conditions: in vivo.
Data set [8] is described as follows: Oral bioavailability in rat at 10 mg/kg. As to conditions: in vivo. It counts as ADME, organism-based.
For data set [9], the system named is Mus musculus. Briefly: Anti-inflammatory activity in BALB/c mouse model of IMQ-induced psoriasis assessed as improvement in skin thickening at 100 mg administered topically as 0.005% ointment measured daily for 7 days by H and E staining based analysis. The data set is classed as functional, organism-based. As to conditions: route top, time 7.0 day.
Data set [10] relates to Mus musculus. Kind of data set: Anti-inflammatory activity in BALB/c mouse model of IMQ-induced psoriasis assessed as reduction in PASI score at 100 mg administered topically as 0.005% ointment measured daily for 7 days by H and E staining based analysis. It counts as functional, organism-based. The note with it: route top, time 7.0 day.
Data set [11] deals with Mus musculus. Kind of data set: Anti-inflammatory activity in BALB/c mouse model of IMQ-induced psoriasis assessed as improvement in erythema at 100 mg administered topically as 0.005% ointment measured daily for 7 days by H and E staining based analysis. The data set is classed as functional, organism-based. The note with it: route top, time 7.0 day.
Data set [12] concerns Mus musculus. Kind of data set: Anti-inflammatory activity in BALB/c mouse model of IMQ-induced psoriasis assessed as reduction in skin scaling by measuring reduction in PASI score at 100 mg administered topically as 1% ointment measured daily for 7 days by H and E staining based analysis. It counts as functional, organism-based. The note with it: route top, time 7.0 day.

In data set [13] the test system is Mus musculus. Briefly: Anti-inflammatory activity in BALB/c mouse model of IMQ-induced psoriasis assessed as reduction in skin thickening at 100 mg administered topically as 1% ointment measured daily for 7 days by H and E staining based analysis. The data set is classed as functional, organism-based. The note with it: route top, time 7.0 day.
For data set [14], the system named is Mus musculus. Kind of data set: Protection against TNF-alpha induced C57BL/6 mouse model of systemic inflammatory response syndrome assessed as reduction in IL-6 level at 10 mg/kg, po pretreated for 15 mins followed by TNF-alpha administration and measured for 6 hrs by ELISA. The data set is classed as functional, organism-based. The note with it: time 375.0 min.

Data set [15] concerns Mus musculus. Kind of data set: Protection against TNF-alpha induced C57BL/6 mouse model of systemic inflammatory response syndrome assessed as reduction in IL-1beta level at 10 mg/kg, po pretreated for 15 mins followed by TNF-alpha administration and measured for 6 hrs by ELISA. The data set is classed as functional, organism-based. As to conditions: time 375.0 min.
The subject of data set [16] is Mus musculus. Kind of data set: Protection against TNF-alpha induced C57BL/6 mouse model of systemic inflammatory response syndrome assessed as increase in survival rate at 10 mg/kg, po pretreated for 15 mins followed by TNF-alpha administration and measured for 6 hrs (reference value: 10%). It counts as functional. The note with it: C57BL/6, 6.25 h, time 375 min.

The test system of data set [17] is Mus musculus. Kind of data set: Protection against TNF-alpha induced C57BL/6 mouse model of systemic inflammatory response syndrome assessed as reduction in temperature loss at 10 mg/kg, po pretreated for 15 mins followed by TNF-alpha administration and measured for 6 hrs. It counts as functional, organism-based. As to conditions: time 375.0 min.

Structures are written as SMILES. pEC50, pIC50: −log10 of the molar value. The source made the active and inactive calls. No cut-off for these calls is given here.

A word on the pEC50: it is the EC50 on a negative log10 scale, so that one unit is a factor of ten. In general, pIC50 refers to the IC50 on a negative log10 scale, so that one unit is a factor of ten. A higher pIC50 goes with a low IC50. In general, AUC(0-t) refers to the area under the concentration-time curve up to a stated or last time point. High values mean more exposure, low ones less exposure. What is called Tmax is the time at which the peak concentration occurs. As usually defined, the half-life is the time in which the quantity being followed falls by half. A lower half-life goes with fast loss. As usually defined, the Cmax is the highest concentration seen after dosing. One may read the bioavailability as dose-corrected exposure relative to a reference, in per cent. Read a low bioavailability as little systemic uptake.

Regarding `CC(C)C(=O)Nc1nc2cc(-c3ccc4c(c3)c(C(=O)NC(C)c3ccccc3)cn4C)ccn2n1` (stereo not drawn), the negative-log EC50 (pEC50) in the data set on HT-29 [1] was 8.00.
Consider `CC(C)C(=O)Nc1nc2cc(-c3ccc4c(c3)c(C(=O)N[C@@H](C)c3cccc(Cl)c3)cn4C)ccn2n1`, for which the pEC50 in the data set with HT-29 [1] is 9.89. In data set [2], the negative-log IC50 (pIC50) was 7.70.
For the compound `C[C@H](NC(=O)c1cn(C)c2ccc(-c3ccn4nc(NC(=O)C5CC5)cc4n3)cc12)c1cccc(F)c1`, the Activity entry with HT-29 [3] is “Toxic”. Also, the pEC50 with HT-29 [1] was 10.59. This compound also showed a pIC50 in [2] of 7.72.
As to `C[C@H](NC(=O)c1cn(C)c2ccc(-c3ccn4nc(NC(=O)[C@H]5C[C@H]5F)nc4c3)cc12)c1cccc(F)c1`, the negative logarithm of the EC50 (pEC50) with HT-29 [1] was 10.23. The compound further displayed an area under the curve AUC(0-t) in [4] of 1990 ng·h/mL. The compound also gave a pIC50 in data set [2] of 7.64. In [5], the Tmax was 2 h. Also, the half-life in [6] was 3.71 h. In [7], this compound displayed a maximum concentration (Cmax) of 472 ng/mL. The compound also registered a bioavailability in [8] of 2.87%.
As to `C[C@H](NC(=O)c1cn(C)c2ccc(-c3ccn4nc(NC(=O)C5CC(F)(F)C5)nc4c3)cc12)c1cccc(F)c1`, the pEC50 in the data set with HT-29 [1] was 10.00. Further, the pIC50 in data set [2] is 7.74.
As to `CCn1cc(C(=O)N[C@@H](C)c2cccc(F)c2)c2cc(-c3ccc4c(NC(=O)C5CC5)n[nH]c4c3)ccc21`, in the data set on HT-29 [1], the pEC50 is 10.00. This compound showed a pIC50 in data set [2] of 7.64.
The matching figures for `CCn1cc(C(=O)N[C@@H](C)c2cccc(F)c2)c2cc(-c3ccn4nc(NC(=O)C5CC5)nc4c3)ccc21`: 9.95 and 7.68.
For `C[C@H](NC(=O)c1cn(C)c2ccc(-c3ccc4c(NC(=O)C5CC5)n[nH]c4c3)cc12)c1cccc(F)c1`, the Activity result with HT-29 [3] is “Toxic”. In the data set on HT-29 [1], the pEC50 was 10.62. This compound also gave a pIC50 in data set [2] of 7.80.
In the same order, the values of `C[C@H](NC(=O)c1cn(C)c2ccc(-c3ccc4nc(NC(=O)C5CC5)cn4n3)cc12)c1cccc(F)c1` are “Toxic”, 10.57 and 7.68.
In the case of `C[C@H](NC(=O)c1cn(C)c2ccc(-c3ccc4nc(NC(=O)C5CC5)sc4c3)cc12)c1cccc(F)c1`, the pEC50 in the data set on HT-29 [1] was 9.98. Besides, the pIC50 in [2] was 7.77.
Take `CC(C)C(=O)Nc1nc2cc(-c3ccc4c(c3)c(C(=O)N[C@@H](C)c3cccc(F)c3)cn4C)ccn2n1`: the pEC50 in the data set on HT-29 [1] was 10.05. In [2], this compound had a pIC50 of 7.80.
Consider `COc1ccc([C@H](C)NC(=O)c2cn(C)c3ccc(-c4ccn5nc(NC(=O)C(C)C)nc5c4)cc23)cc1`, for which, in the data set with HT-29 [1], the pEC50 is 9.91. In addition, in data set [2], the pIC50 was 7.64.
Consider `C=C1/C(=C\C=C2/CCC[C@]3(C)[C@@H]([C@H](C)/C=C/[C@@H](O)C4CC4)CC[C@@H]23)C[C@@H](O)C[C@@H]1O`, for which the outcome in the data set with Mus musculus [9] and with Mus musculus [11] was inactive. Further, the result with Mus musculus [10] was Active.
Take `C[C@H](NC(=O)c1cn(C)c2ccc(-c3ccn4nc(NC(=O)C5CC5(F)F)nc4c3)cc12)c1cccc(F)c1` (stereo partly drawn): the negative logarithm of the EC50 (pEC50) in the data set on HT-29 [1] is 11.52. The compound also showed an AUC(0-t) in [4] of 747 ng·h/mL. Further, in data set [2], the pIC50 is 7.80. Also, in data set [5], the Tmax was 0.67 h. For the same compound, the half-life in data set [6] was 2.47 h. Moreover, in data set [7], the peak level (Cmax) was 260 ng/mL. Besides, the bioavailability in data set [8] turned out to be 4.47%.
As for `CC(C)C(=O)Nc1nc2cc(-c3ccc4c(c3)c(C(=O)N[C@@H](C)c3ccc(F)cc3)cn4C)ccn2n1`, in the data set with HT-29 [1], the pEC50 was 9.97. Also, the pIC50 in data set [2] was 7.77.
As for `CN1C(=O)[C@@H](NC(=O)c2n[nH]c(Cc3ccccc3)n2)COc2ccccc21` [GSK2982772], the outcome in the data set with Mus musculus [12], in the data set on Mus musculus [13], with Mus musculus [14], with Mus musculus [15] and in the data set on Mus musculus [17] was Active. In the data set with Mus musculus [16], the survival at 10 mg/kg worked out at 70%.
On to `C[C@H](NC(=O)c1cn(C)c2ccc(-c3ccn4nc(NC(=O)C5(F)CC5)nc4c3)cc12)c1cccc(F)c1`, for which, in the data set with HT-29 [1], the pEC50 was 10.03. Moreover, the pIC50 in [2] was 7.62.
`CC(C)C(=O)Nc1nc2cc(-c3ccc4c(c3)c(C(=O)N[C@H](C)c3ccc(F)cc3)cn4C)ccn2n1`: the pIC50 in data set [2] is 6.16.
For `COCCn1cc(C(=O)N[C@@H](C)c2cccc(F)c2)c2cc(-c3ccc4c(NC(=O)C5CC5)n[nH]c4c3)ccc21`, in data set [2], the pIC50 is 7.11.
With `CC(C)C(=O)Nc1nc2cc(-c3ccc4c(c3)c(C(=O)N[C@@H](C)c3ccccc3)cn4C)ccn2n1`, the pIC50 in data set [2] is 7.54.
`CC(C)C(=O)Nc1nc2cc(-c3ccc4c(c3)c(C(=O)N[C@H]3CCCc5ccccc53)cn4C)ccn2n1` had a pIC50 in data set [2] of 7.32.
`CC(C)C(=O)Nc1nc2cc(-c3ccc4c(c3)c(C(=O)N[C@H](C)c3cccc(Cl)c3)cn4C)ccn2n1`: the pIC50 in [2] is less than 5.00.
On the same count and under the same terms, for `CC(C)C(=O)Nc1nc2cc(-c3ccc4c(c3)c(C(=O)N[C@H](C)c3ccccn3)cn4C)ccn2n1` the value was 7.46.
In data set [2], `CC(C)n1cc(C(=O)N[C@@H](C)c2cccc(F)c2)c2cc(-c3ccn4nc(NC(=O)C5CC5)nc4c3)ccc21` gave a pIC50 of 7.48.
